Experiments:
Format in all cases: functional
Felis catus = test: CNS activity in po dosed unanesthesized cat assessed as muscle relaxant activity; conditions: read-out: MED
Mus musculus [1] = test: CNS activity in po dosed mouse assessed as reduction in muscle relaxant activity by inclined screening method
Mus musculus [2] = test: Anticonvulsant activity in po dosed mouse assessed as protection against maximal electroshock-induced seizures
Mus musculus [3] = test: CNS activity in po dosed mouse assessed as reduction in fighting behaviour
Mus musculus [4] = test: Anticonvulsant activity in po dosed mouse assessed as protection against pentylenetetrazole-induced seizures

SMILES | minimal effective dose (Felis catus) | ED50 (Mus musculus [1]) | ED50 (Mus musculus [2]) | ED50 (Mus musculus [3]) | ED50 (Mus musculus [4])
O=C1CN=C(c2ccccn2)c2cc(Br)ccc2N1 [BROMAZEPAM] | 0.2 mg/kg | 30 mg/kg | 34 mg/kg | 10 mg/kg | 0.8 mg/kg
O=C1CN=C(c2cnccn2)c2cc(Cl)ccc2N1 | 10 mg/kg | 300 mg/kg | > 800 mg/kg | 50 mg/kg | 7.4 mg/kg
O=C1CN=C(c2ccncn2)c2cc(Cl)ccc2N1 | – | > 400 mg/kg | > 800 mg/kg | > 100 mg/kg | 340 mg/kg
CN1C(=O)CN=C(c2ncccn2)c2cc(Cl)ccc21 | 0.1 mg/kg | > 200 mg/kg | 315 mg/kg | – | 0.75 mg/kg
CN1CCN=C(c2ncccn2)c2cc([N+](=O)[O-])ccc21 | 20 mg/kg | 250 mg/kg | > 800 mg/kg | > 100 mg/kg | 93 mg/kg
O=[N+]([O-])c1ccc2c(c1)C(c1ncccn1)=NCCN2 | – | > 400 mg/kg | > 800 mg/kg | – | 68 mg/kg
Cc1cnc(C)c(C2=NCC(=O)Nc3ccc(Br)cc32)n1 | 10 mg/kg | > 400 mg/kg | > 800 mg/kg | 50 mg/kg | 37 mg/kg
CN1C(=O)CN=C(c2ccccc2)c2cc(Cl)ccc21 [DIAZEPAM] | 0.2 mg/kg | 30 mg/kg | 22 mg/kg | 10 mg/kg | 1.4 mg/kg
O=C1CN=C(c2ncccn2)c2cc(Cl)ccc2N1 | 2 mg/kg | 500 mg/kg | 520 mg/kg | 100 mg/kg | 1.75 mg/kg
CN1CCN=C(c2ncccn2)c2cc(Cl)ccc21 | 10 mg/kg | 200 mg/kg | 360 mg/kg | 100 mg/kg | > 800 mg/kg
